# Assays:
# [1] = system: transgenic tobacco plants expressing mutant HPPD SEQ ID NO: 9; assay: spray test, herbicidal damage scoring; assay type: in vivo
# Protocol: (§1) Avena sativa HPPD or orthologues and variants thereof, for example SEQ IDs 1-63 and 122-127, were expressed in transgenic tobacco. DNA sequences that encode these polypeptides (optimized for tobacco or, optionally, codon optimized according to a target crop such as soybean) were prepared synthetically. Each sequence was designed to include a 5′ fusion with TMV omega 5′ leader sequence such that they are flanked at the 5′ end with XhoI and at the 3′ end with KpnI to facilitate direct cloning into a suitable binary vector for Agrobacterium-based plant transformation.
# In one example, the TMV omega 5′ leader and a HPPD encoding gene of interest is excised using XhoI/KpnI and cloned into similarly digested binary vector pBIN 19 (Bevan, Nucl. Acids Res. (1984) behind a double enhanced 35S promoter ahead of a NOS 3′ transcription terminator and then transformed into E. coli DH5 alpha competent cells. DNA recovered from the E. coli is used to transform Agrobacterium tumefaciens LBA4404, and transformed bacteria are selected on media contain rifampicin and kanamycin. Tobacco tissue is subjected to Agrobacterium-mediated transformation using methods well described in the art or as described herein. For example, a master plate of Agrobacterium tumefaciens containing the HPPD expressing the binary vector is used to inoculate 10 ml LB (L broth) containing 100 mg/l Rifampicin plus 50 mg/l Kanamycin using a single bacterial colony. This is incubated overnight at 28° C. shaking at 200 rpm. This entire overnight culture is used to inoculate a 50 ml volume of LB containing the same antibiotics. Again this is cultured overnight at 28° C. shaking at 200 rpm. […]
# Plants are assessed for damage and scored at, for example, 7 and 14 days after treatment (DAT). […]
# Plants of events showing the least damage are grown to flowering, then bagged and allowed to self. […] Single copy events amongst the Ti plant lines are identified by their 3:1 segregation ratio (with respect to kanamycin and/or herbicide) and by quantitative RT-PCR. […] HPPD expression levels were monitored by Western analysis. […]
# [2] = system: HPPD variant AVESA V201 (SEQ ID NO: 8); assay type: biochemical, Avena sativa; settings: SEQ ID NO: 8 compared to control SEQ ID NO: 122
# Protocol: 25 ul of the overnight cultures were inoculated into fresh 96-deepwell block containing 1 ml Formedium Autoinduction Media (AIM). The AIM cultures were grown for 3h at 37° C. (900rpm) and then transferred to 20° C. overnight (900rpm) to allow protein expression. The overnight cultures were centrifuged and 500 ul of Cellytic B (Sigma Aldrich) was added to resuspend the cell pellets. The coupled HGO assay (Siehl et al, 2014) is used to generate IC50 values for the HPPD variants of interest.
# E. coli BL21 (DE3) cells were transformed with a pET24a vector containing a C-terminally his-tagged Arabidopsis HGO gene, grown and induced overnight as described for the HPPD variants above. The cell pellet was resuspended in phosphate buffered saline at pH 7.4 containing 10% Glycerol, 1mm Tris[2-carboxyethyl] phosphine-HCl (TCEP) plus 30 mM Imidazole and lysed using lysozyme/benzonase. The extract was clarified by low speed centrifugation and purified in the same buffer down a 1 ml His Gravitrap column. The bound HGO was eluted in 0.25M imidazole and the fractions pooled and beaded into liquid nitrogen. All procedures apart from the centrifugation and beading steps were carried out under a nitrogen atmosphere.
# The coupled HGO assay is carried out by adding 10 ul of HPPD extract to a 96-well plate and then adding 40 ul of reaction buffer (50 mM Bis Tris Propane, pH7.0, 25 mM sodium-L-ascorbate, 400μM mercaptoethanol, 50 μM Fe(II)SO4). The plates are left to incubate for 5 minutes on ice. […] 200 ul of HPP/HGO (197 μM hydroxyphenylpyruvic acid, 16 μl/ml Homogentisic Acid Oxidase in reaction buffer as described above) buffer is then added to the well and the reaction is regularly monitored (e.g. every 30 seconds-5 minutes) for absorbance at 330 nm for a given time period (e.g., for between 15-60 minutes). The data can then be used to calculate the IC50 value for each HPPD variant of interest.
# [3] = system: transgenic tobacco plants expressing mutant HPPD SEQ ID NO: 14; assay: spray test, herbicidal damage scoring; assay type: in vivo
# Protocol: as §1
# In one example, the TMV omega 5′ leader and a HPPD encoding gene of interest is excised using XhoI/KpnI and cloned into similarly digested binary vector pBIN 19 (Bevan, Nucl. Acids Res. (1984) behind a double enhanced 35S promoter ahead of a NOS 3′ transcription terminator and then transformed into E. coli DH5 alpha competent cells. DNA recovered from the E. coli is used to transform Agrobacterium tumefaciens LBA4404, and transformed bacteria are selected on media contain rifampicin and kanamycin. Tobacco tissue is subjected to Agrobacterium-mediated transformation using methods well described in the art or as described herein. For example, a master plate of Agrobacterium tumefaciens containing the HPPD expressing the binary vector is used to inoculate 10 ml LB (L broth) containing 100 mg/l Rifampicin plus 50 mg/l Kanamycin using a single bacterial colony. This is incubated overnight at 28° C. shaking at 200 rpm. This entire overnight culture is used to inoculate a 50 ml volume of LB containing the same antibiotics. Again this is cultured overnight at 28° C. shaking at 200 rpm. The Agrobacterium cells are pelleted by centrifuging at 3000 rpm for 15 minutes and then resuspended in MS (Murashige and Skoog) medium containing 30 g/l sucrose, pH 5.9 to an OD […]=0.6. This suspension is dispensed in 25 ml aliquots into petri dishes.
# Once rooted, plantlets are transferred from agar and potted into 50% peat, 50% John Innes Soil No. 3 or, for example, MetroMix® 380 soil (Sun Gro Horticulture, Bellevue, WA) with slow-release fertilizer in 3 inch round or 4 inch square pots and left regularly watered to establish for 8-12d in the glass house. Glass house conditions are about 24-27° C. day; 18-21° C. night and approximately a 14h (or longer in UK summer) photoperiod. Humidity is adjusted to ˜65% and light levels used are up to 2000 umol/m^2 at bench level. Once new tissue emerged and plants reach the 2-4 leaf stage, some of the clones from each event are sprayed with an HPPD inhibitor of interest selected from the herbicides listed in reference to Example 1. […] For example Callisto® is mixed in water with 0.2-0.25% X-77 surfactant and sprayed from a boom on a suitable track sprayer moving at 2 mph in a DeVries spray chamber (Hollandale, MN) with the nozzle about 2 inches from the plant tops.
# Plants are assessed for damage and scored at, for example, 7 and 14 days after treatment (DAT). About 20-30 TO events are produced for a number of HPPD variant genes.
# Plants of events showing the least damage are grown to flowering, then bagged and allowed to self. […] Single copy events amongst the Ti plant lines are identified by their 3:1 segregation ratio (with respect to kanamycin and/or herbicide) and by quantitative RT-PCR. Seed from the thus selected Ti tobacco (var. Samsun) lines are sown in 3 inch diameter pots containing 50% peat and 50% John Innes Soil No. 3. After growth to the 3 leaf stage, plants are sprayed as described above in order to test for herbicide tolerance relative to like-treated non-transgenic tobacco plants, and also in comparison with like-treated Ti plants expressing the base HPPD SEQ IDs 122-125. HPPD expression levels were monitored by Western analysis. […]
SMILES,"damage ([1]; 2000 g/ha, SEQ ID 9 plants compared to plants expressing SEQ IDs 122, 124 or 125)",increase of the IC50 value [2],"damage ([3]; 200 g/ha, SEQ ID 14 plants compared to plants expressing SEQ IDs 122, 124 or 125)","stunting ([3]; FIG. 4, 300 ai/ha, SEQ ID NO: 14 plants compared to plants expressing the wild-type HPPD (SEQ ID NO: 1))","chlorosis ([3]; FIG. 4, 300 ai/ha, some multi-copy events expressing SEQ ID NO: 14)","chlorosis (yellowing of leaf tissue) ([3]; FIG. 5, 50 g/ha, SEQ ID NO: 14 plants compared to plants expressing SEQ ID NO: 122 or SEQ ID NO: 17)","tolerance in comparison to SEQ ID NO: 122 ([3]; many lines expressing SEQ ID NO: 14, 100 g/ha (Table 3.1))","damage ([3]; several lines expressing SEQ ID NO: 14, 100 g/ha (Table 3.1))","tolerance ([1]; SEQ ID 9 plants, 100 g/ha (Table 3.4))","tolerance compared to plants expressing SEQ ID 125 ([1]; SEQ ID 9 plants, 200 g/ha (Table 3.4))"
"Cn1nnnc1NC(=O)c1ccc(C(F)(F)F)nc1-n1cncn1 [Herbicide D, N-(1-methyltetrazol-5-yl)-2-(1,2,4-triazol-1-yl)-6-(trifluoromethyl)pyridine-3-carboxamide]",significantly reduced damage,~80 fold,,,,,,,,
"COc1ccc(-n2nc(C)cc(C(=O)C3C(=O)CCCC3=O)c2=O)cc1OC [Herbicide C, dioxopyritrione]",,,reduced damage,significantly reduced stunting,Almost no chlorosis,significantly reduced chlorosis,significantly improved tolerance,less than 10%,display tolerance,higher tolerance
